In ChEMBL document CHEMBL3407338, “Synthesis and structure-activity relationship of novel 1,4-diazabicyclo[2.2.2]octane derivatives as potent antimicrobial agents” (Eur J Med Chem, 2015):

Legend:
[1] = test system: Bacillus subtilis; assay: Antimicrobial activity against Bacillus subtilis ATCC 6633 at 1 ug/ml after 24 hrs by agar diffusion method; format: functional; conditions: ATCC 6633, 24 h, read-out: DIZ
[2] = test system: Staphylococcus aureus; assay: Antimicrobial activity against Staphylococcus aureus ATCC 25923 at 1 ug/ml after 24 hrs by agar diffusion method; format: functional; conditions: ATCC 25923, 24 h, read-out: DIZ
[3] = test system: Pseudomonas aeruginosa; assay: Antimicrobial activity against Pseudomonas aeruginosa ATCC 9027 at 1 ug/ml after 24 hrs by agar diffusion method; format: functional; conditions: ATCC 9027, 24 h, read-out: DIZ
[4] = test system: Salmonella enterica; assay: Antimicrobial activity against Salmonella enterica ATCC 14028 at 1 ug/ml after 24 hrs by agar diffusion method; format: functional; conditions: ATCC 14028, 24 h, read-out: DIZ
[5] = test system: Escherichia coli; assay: Antimicrobial activity against Escherichia coli ATCC 25922 at 1 ug/ml after 24 hrs by agar diffusion method; format: functional; conditions: ATCC 25922, 24 h, read-out: DIZ
[6] = test system: Candida albicans; assay: Antimicrobial activity against Candida albicans ATCC 32354 at 1 ug/ml after 24 hrs by agar diffusion method; format: functional; conditions: ATCC 32354, 24 h, read-out: DIZ
[7] = test system: Bacillus subtilis; assay: Antimicrobial activity against 10^4 CFU/ml Bacillus subtilis ATCC 6633 after 22 hrs by serial microdilution method; format: functional; conditions: ATCC 6633, 22 h
[8] = test system: Bacillus subtilis; assay: Antimicrobial activity against 10^7 CFU/ml Bacillus subtilis ATCC 6633 after 22 hrs by serial microdilution method; format: functional; conditions: ATCC 6633, 22 h
[9] = test system: Pseudomonas aeruginosa; assay: Antimicrobial activity against 10^4 CFU/ml Pseudomonas aeruginosa ATCC 9027 after 22 hrs by serial microdilution method; format: functional; conditions: ATCC 9027, 22 h
[10] = test system: Pseudomonas aeruginosa; assay: Antimicrobial activity against 10^7 CFU/ml Pseudomonas aeruginosa ATCC 9027 after 22 hrs by serial microdilution method; format: functional; conditions: ATCC 9027, 22 h
[11] = test system: Staphylococcus aureus; assay: Antimicrobial activity against 10^4 CFU/ml Staphylococcus aureus ATCC 25923 after 22 hrs by serial microdilution method; format: functional; conditions: ATCC 25923, 22 h
[12] = test system: Staphylococcus aureus; assay: Antimicrobial activity against 10^7 CFU/ml Staphylococcus aureus ATCC 25923 after 22 hrs by serial microdilution method; format: functional; conditions: ATCC 25923, 22 h
[13] = test system: Escherichia coli; assay: Antimicrobial activity against 10^4 CFU/ml Escherichia coli ATCC 25922 after 22 hrs by serial microdilution method; format: functional; conditions: ATCC 25922, 22 h
[14] = test system: Escherichia coli; assay: Antimicrobial activity against 10^7 CFU/ml Escherichia coli ATCC 25922 after 22 hrs by serial microdilution method; format: functional; conditions: ATCC 25922, 22 h
[15] = test system: Salmonella enterica; assay: Antimicrobial activity against 10^4 CFU/ml Salmonella enterica ATCC 14028 after 22 hrs by serial microdilution method; format: functional; conditions: ATCC 14028, 22 h
[16] = test system: Salmonella enterica; assay: Antimicrobial activity against 10^7 CFU/ml Salmonella enterica ATCC 14028 after 22 hrs by serial microdilution method; format: functional; conditions: ATCC 14028, 22 h
[17] = test system: Candida albicans; assay: Antimicrobial activity against 10^4 CFU/ml Candida albicans ATCC 32354 after 22 hrs by serial microdilution method; format: functional; conditions: ATCC 32354, 22 h
[18] = test system: Candida albicans; assay: Antimicrobial activity against 10^7 CFU/ml Candida albicans ATCC 32354 after 22 hrs by serial microdilution method; format: functional; conditions: ATCC 32354, 22 h
[19] = test system: Pseudomonas aeruginosa; assay: Antimicrobial activity against 10^4 CFU/ml Pseudomonas aeruginosa ATCC 9027 assessed as reduction in CFU/ml at measured at 10 ug/ml after 2.5 hrs by time-kill kinetic study relative to control; format: functional; set-up: scale not given: the % may be the effect or the level left
[20] = test system: Pseudomonas aeruginosa; assay: Antimicrobial activity against 10^4 CFU/ml Pseudomonas aeruginosa ATCC 9027 assessed as reduction in CFU/ml at measured at 10 ug/ml after 5 hrs by time-kill kinetic study relative to control; format: functional; set-up: scale not given: the % may be the effect or the level left
[21] = test system: Pseudomonas aeruginosa; assay: Antimicrobial activity against 10^4 CFU/ml Pseudomonas aeruginosa ATCC 9027 assessed as reduction in CFU/ml at measured at 10 ug/ml after 22 hrs by time-kill kinetic study relative to control; format: functional; set-up: scale not given: the % may be the effect or the level left
[22] = test system: Staphylococcus aureus; assay: Antimicrobial activity against 10^4 CFU/ml Staphylococcus aureus ATCC 25923 assessed as reduction in CFU/ml at measured at 10 ug/ml after 2.5 hrs by time-kill kinetic study relative to control; format: functional; set-up: scale not given: the % may be the effect or the level left
[23] = test system: Staphylococcus aureus; assay: Antimicrobial activity against 10^4 CFU/ml Staphylococcus aureus ATCC 25923 assessed as reduction in CFU/ml at measured at 10 ug/ml after 5 hrs by time-kill kinetic study relative to control; format: functional; set-up: scale not given: the % may be the effect or the level left
[24] = test system: Staphylococcus aureus; assay: Antimicrobial activity against 10^4 CFU/ml Staphylococcus aureus ATCC 25923 assessed as reduction in CFU/ml at measured at 10 ug/ml after 22 hrs by time-kill kinetic study relative to control; format: functional; set-up: scale not given: the % may be the effect or the level left
[25] = test system: Pseudomonas aeruginosa; assay: Antimicrobial activity against 10^7 CFU/ml Pseudomonas aeruginosa ATCC 9027 assessed as reduction in CFU/ml at measured at 10 ug/ml after 2.5 hrs by time-kill kinetic study relative to control; format: functional; set-up: scale not given: the % may be the effect or the level left
[26] = test system: Pseudomonas aeruginosa; assay: Antimicrobial activity against 10^7 CFU/ml Pseudomonas aeruginosa ATCC 9027 assessed as reduction in CFU/ml at measured at 10 ug/ml after 5 hrs by time-kill kinetic study relative to control; format: functional; set-up: scale not given: the % may be the effect or the level left
[27] = test system: Pseudomonas aeruginosa; assay: Antimicrobial activity against 10^7 CFU/ml Pseudomonas aeruginosa ATCC 9027 assessed as reduction in CFU/ml at measured at 10 ug/ml after 22 hrs by time-kill kinetic study relative to control; format: functional; set-up: scale not given: the % may be the effect or the level left
[28] = test system: Staphylococcus aureus; assay: Antimicrobial activity against 10^7 CFU/ml Staphylococcus aureus ATCC 25923 assessed as reduction in CFU/ml at measured at 10 ug/ml after 2.5 hrs by time-kill kinetic study relative to control; format: functional; set-up: scale not given: the % may be the effect or the level left
[29] = test system: Staphylococcus aureus; assay: Antimicrobial activity against 10^7 CFU/ml Staphylococcus aureus ATCC 25923 assessed as reduction in CFU/ml at measured at 10 ug/ml after 5 hrs by time-kill kinetic study relative to control; format: functional; set-up: scale not given: the % may be the effect or the level left
[30] = test system: Staphylococcus aureus; assay: Antimicrobial activity against 10^7 CFU/ml Staphylococcus aureus ATCC 25923 assessed as reduction in CFU/ml at measured at 10 ug/ml after 22 hrs by time-kill kinetic study relative to control; format: functional; set-up: scale not given: the % may be the effect or the level left
[31] = test system: RPMI-8226; assay: Cytotoxicity against human RPMI8226 cells after 72 hrs by MTT assay; format: cell-based; conditions: RPMI-8226, 72 h
[32] = Cytotoxicity against mouse LMTK cells after 72 hrs by MTT assay; format: cell-based; conditions: L-M(TK-)
[33] = test system: HEK-293T; assay: Cytotoxicity against human HEK293T cells after 72 hrs by MTT assay; format: cell-based
[34] = test system: MEF; assay: Cytotoxicity against mouse MEF cells after 72 hrs by MTT assay; format: cell-based

SMILES: CCCCCCCCCC[N+]12CC[N+](CCCCC[N+]34CC[N+](CCCCCCCCCC)(CC3)CC4)(CC1)CC2.[Br-].[Br-].[Br-].[Br-]
- zone of inhibition at 1 µg/mL [1]: 10 mm
- zone of inhibition at 1 µg/mL [2]: 10 mm
- zone of inhibition at 1 µg/mL [3]: 6 mm
- zone of inhibition at 1 µg/mL [4]: 7 mm
- zone of inhibition at 1 µg/mL [5]: 10 mm
- zone of inhibition at 1 µg/mL [6]: 10 mm
- MBC [7]: < 1.6 µg/mL
- MIC [7]: < 1.6 µg/mL
- MBC [8]: 3.1 µg/mL
- MIC [8]: 3.1 µg/mL
- MBC [9]: 1.6 µg/mL
- MIC [9]: 1.6 µg/mL
- MBC [10]: 25 µg/mL
- MIC [10]: 12.5 µg/mL
- MBC [11]: 12.5 µg/mL
- MIC [11]: 3.1 µg/mL
- MBC [12]: 6.3 µg/mL
- MIC [12]: 6.3 µg/mL
- MBC [13]: 6.3 µg/mL
- MIC [13]: 6.3 µg/mL
- MBC [14]: 12.5 µg/mL
- MIC [14]: 6.3 µg/mL
- MBC [15]: 25 µg/mL
- MIC [15]: 12.5 µg/mL
- MBC [16]: 50 µg/mL
- MIC [16]: 12.5 µg/mL
- MBC [17]: < 1.6 µg/mL
- MIC [17]: < 1.6 µg/mL
- MBC [18]: < 1.6 µg/mL
- MIC [18]: < 1.6 µg/mL
- Activity [19]: 62.3%
- Activity [20]: 99.2%
- Activity [21]: 25%
- Activity [22]: 100%
- Activity [23]: 100%
- Activity [24]: 100%
- Activity [25]: 0%
- Activity [26]: 43%
- Activity [27]: 0%
- Activity [28]: 100%
- Activity [29]: 100%
- Activity [30]: 100%
- IC50 [31]: 45.2 µg/mL
- IC50 [32]: 56.4 µg/mL
- IC50 [33]: 93.8 µg/mL
- IC50 [34]: 23.4 µg/mL

SMILES: CCCCCCCCCCCC[N+]12CC[N+](CCCCC[N+]34CC[N+](CCCCCCCCCCCC)(CC3)CC4)(CC1)CC2.[Br-].[Br-].[Cl-].[Cl-]
- zone of inhibition at 1 µg/mL [1]: 10 mm
- zone of inhibition at 1 µg/mL [2]: 10 mm
- zone of inhibition at 1 µg/mL [3]: 7 mm
- zone of inhibition at 1 µg/mL [4]: 7 mm
- zone of inhibition at 1 µg/mL [5]: 9 mm
- zone of inhibition at 1 µg/mL [6]: 10 mm
- MBC [7]: < 1.6 µg/mL
- MIC [7]: < 1.6 µg/mL
- MBC [8]: 3.1 µg/mL
- MIC [8]: 3.1 µg/mL
- MBC [9]: < 1.6 µg/mL
- MIC [9]: < 1.6 µg/mL
- MBC [10]: 6.3 µg/mL
- MIC [10]: 6.3 µg/mL
- MBC [11]: 6.3 µg/mL
- MIC [11]: 3.1 µg/mL
- MBC [12]: 12.5 µg/mL
- MIC [12]: 6.3 µg/mL
- MBC [13]: 3.1 µg/mL
- MIC [13]: 3.1 µg/mL
- MBC [14]: 6.3 µg/mL
- MIC [14]: 6.3 µg/mL
- MBC [15]: 25 µg/mL
- MIC [15]: 25 µg/mL
- MBC [16]: 50 µg/mL
- MIC [16]: 25 µg/mL
- MBC [17]: 6.3 µg/mL
- MIC [17]: 3.1 µg/mL
- MBC [18]: 12.5 µg/mL
- MIC [18]: 12.5 µg/mL
- Activity [19]: 99.9%
- Activity [20]: 100%
- Activity [21]: 100%
- Activity [22]: 100%
- Activity [23]: 100%
- Activity [24]: 100%
- Activity [25]: 100%
- Activity [26]: 100%
- Activity [27]: 100%
- Activity [28]: 100%
- Activity [29]: 100%
- Activity [30]: 100%
- IC50 [31]: 11.7 µg/mL
- IC50 [32]: 25.6 µg/mL
- IC50 [33]: 23.4 µg/mL
- IC50 [34]: 12.7 µg/mL
